The record followed here is US12274688B2, “Drug-loaded mesoporous silica nanoparticle for prevention and treatment of brain cancers or brain metastases” (NANO TARGETING & THERAPY BIOPHARMA INC, priority 2022, dated 2025).

The conditions of data set [1]: mouse, in vivo, iv.
Text: (§1) To evaluate the toxicity of DTX and CTX and the efficacy of direct administration of DTX and CTX on treating TMZ resistant brain tumors, 36 mice transplanted with TMZ-resistant brain tumors were used in the experiments, divided into six groups, each group having six mice; details of dosage are noted in Table 7 below:
(§2) The administration frequency was twice per week until the end of the study. DTX, CTX and PBS were intravenously (IV) injected and TMZ was intraperitoneally (IP) injected into mice. To assess overall survival, mice were monitored up to the point of spontaneous death or approaching moribund status.
Data set [2] deals with TMZ-resistant glioma cells (U87MG-R). In words: Orthotopic TMZ-resistant brain tumor mouse model (survival, tumor size).
Experimental: TMZ-resistant glioma cells (U87MG-R) were cultured at 37° C. in a humidified 5% CO2 atmosphere in Dulbecco's Modified Eagle Medium (DMEM) supplemented with 10% fetal bovine serum and 100 ug/mL penicillin/streptomycin. NOD-SCID male mice (8-week-old) were purchased from BioLASCO Taiwan Co. Ltd. For intracranial transplantation, an experimental procedure was performed under sterile conditions. For TMZ-resistant glioblastoma transplantation, a skull burr hole was created in the right frontal brain area. Cells (2×10^5, or five microliters of TMZ-resistant glioma cell suspension (U87MG-R, 6×10^5 cells/5 μL) were injected into the cortex at a depth of 3 mm using stereotactic guidance and a microprocessor single syringe (Harvard Apparatus, Holliston, MA, USA).
as §2
Body weight and survival time of animals were monitored up to the point of spontaneous death.
A short description of data set [3]: Toxicity/tolerability in mice transplanted with TMZ-resistant brain tumors. Particulars: for Survival of mice to the end of the testing period: 10 or 20 mg/kg IV with TMZ 10 mg/kg, testing period (15)/19 days; for Toxicity (body weight decrease, low survival rate): dose of 10 mg/kg or above IV, with TMZ 10 mg/kg IP.
Text: as §1, §2
[4] abbreviates: 10 mg/kg IV + TMZ 10 mg/kg IP, twice per week.
Setting [5] is: 20 mg/kg IV + TMZ 10 mg/kg IP, twice per week.
The mark [6] stands for this setting: PBS IV + TMZ 10 mg/kg IP, twice per week.

In the case of `CC(=O)O[C@@]12CO[C@@H]1C[C@H](O)[C@@]1(C)C(=O)[C@H](O)C3=C(C)[C@@H](OC(=O)[C@H](O)[C@@H](NC(=O)OC(C)(C)C)c4ccccc4)C[C@@](O)([C@@H](OC(=O)c4ccccc4)[C@H]21)C3(C)C` [DTX, docetaxel], in data set [1], the Signs of toxicity entry is “immobility, interaction deficits, and more body weight loss”. Further, in data set [2] (setting [4]), the “Median Survival Time (days after 1st injection)” value worked out at 15 days and the “Median Survival Time (days after implantation of tumor cells)” value was 19 days. In data set [2] (setting [5]), the “Median Survival Time (days after 1st injection)” value is listed as 11 days and the “Median Survival Time (days after implantation of tumor cells)” value was determined as 15 days. In addition, in data set [3], the “Survival of mice to the end of the testing period” value was “all mice died before the end of the testing period” and the “Toxicity (body weight decrease, low survival rate)” value is “high toxicity”.

Take `CO[C@H]1C(=O)[C@]2(C)[C@@H](OC)C[C@H]3OC[C@@]3(OC(C)=O)[C@H]2[C@H](OC(=O)c2ccccc2)[C@]2(O)C[C@H](OC(=O)[C@H](O)[C@@H](NC(=O)OC(C)(C)C)c3ccccc3)C(C)=C1C2(C)C` [CTX, cabazitaxel]: in data set [2] (setting [4]), the “Median Survival Time (days after 1st injection)” value was 11 days and the “Median Survival Time (days after implantation of tumor cells)” value is 15 days. Further, in data set [2] (setting [5]), the “Median Survival Time (days after 1st injection)” value worked out at 8 days and the “Median Survival Time (days after implantation of tumor cells)” value was 12 days. In data set [3], the “Survival of mice to the end of the testing period” value is recorded as “all mice died before the end of the testing period” and the “Toxicity (body weight decrease, low survival rate)” value is “high toxicity”. Besides, the “Toxicity of direct administration” value in data set [3] (dose of 5 mg/kg or higher) is listed as “high toxicity”.

`Cn1nnc2c(C(N)=O)ncn2c1=O` [TMZ, temozolomide]: in data set [2] (setting [6]), the “Median Survival Time (days after 1st injection)” value is listed as 23 days. In addition, the “Median Survival Time (days after implantation of tumor cells)” value in data set [2] (setting [6]) is 27 days; in data set [2] (Table 9: PBS + TMZ (10 mg/kg)), 27 [26.5] days; in data set [2] (Table 10: PBS + TMZ (10 mg/kg)), 27 [26.5] days.
